Data published in patent publication US9089539B2 (Indiana University Research and Technology Corporation, priority 2008, dated 2015).
Where a SMILES comes first, the peptide text is derived from it. Bridges are numbered along the chain shown (N, C = ends). Where no end group is shown, it is not given here. Side-chain parts run from the residue outwards. [ ]: non-standard residue; d: D form. The star is where a group is joined. Desaminohistidyl = O=C(CCc1c[nH]cn1)*; PLA = phenyl lactic acid; Aib = CC(C)(N)C(=O)O

How the values were obtained:
[1] = Cleavage of dipeptide-extended prodrugs on incubation in PBS (HPLC/MS); type: physicochemical
Experimental: Preliminary analyses were performed with these crude peptides to get an approximation of their relative conversion rates in Phosphate Buffered Saline (PBS) buffer (pH, 7.2) using high performance liquid chromatography (HPLC) and MALDI analysis. The crude peptide samples were dissolved in the PBS buffer at a concentration of 1 mg/ml. 1 ml of the resulting solution was stored in a 1.5 ml HPLC vial which was then sealed and incubated at 37° C. Aliquots of 100 μl were drawn out at various time intervals, cooled to room temperature and analyzed by HPLC.
HPLC analyses were performed on a 150 mm×4.6 mm C18 Vydac column. The flow rate was 1 ml/min. […] A linear gradient was employed (40% to 70% B in 15 minutes).
Each N-terminally extended peptide was incubated in PBS buffer at 37° C. for approximately a week. Alternatively, each peptide was heated for 120 min at 100° C. to accelerate the amide bond cleavage. Cleavage of the prodrugs was analyzed by reverse phase HPLC and MS.
To explore the possible formation of 2,5-diketopiperazine (DKP) or 2,5-diketomorpholine (DMP) and the simultaneous generation of HO-F^7,GLP(8-36)-CEX, the prodrug was incubated in PBS buffer at 37° C. for approximately a week. The peptide was also heated at 100° C. to determine the susceptibility to cleavage (Table 4).

GLP-1 receptor = biological target: T1, GLP-1 receptor (Homo sapiens, UniProt P43220); experiment: Luciferase-based reporter gene assay for cAMP detection, GLP-1 receptor; type: cell-based
T1 construct: expressed in transfected cells; host or cells: HEK293

blood glucose [2] = experiment: Glucose challenge in DIO mice after intraperitoneal peptide injection (Examples 5-7); type: in vivo; conditions: 2 nmol/kg
Experimental: Six groups of diabetes-induced obesity (DIO) mice (eight mice per group) having an initial average body weight of 49.5 g were intraperitoneally injected with 2 nmol/kg of a PBS vehicle control or one of Peptides A-E described below:
(§1) Fifteen minutes after injection with one of the compounds or with vehicle control (at time point 0), a 25% (w/v) glucose saline solution was injected at a dose of 1.5 g per kg of body weight. Blood glucose concentrations of the mice were measured at the time of injection of the compound or vehicle control, at the time of glucose injection, and at 15, 30, 60, and 120 minutes after glucose injection.
Blood glucose levels of the mice were measured as described in Example 5.

[3] = Body weight and food intake of DIO mice over one week (Example 8); type: in vivo; conditions: 15 or 70 nmol/kg; for total food intake: seven days after injection
Experimental: (§2) Nine groups of diabetes-induced obesity (DIO) mice (8 mice per group) having an initial average body weight of 56 g were intraperitoneally injected once and followed for one week with 15 or 70 nmol/kg of Peptides Y, Z, F-Peg, and G-Peg described below or PBS vehicle control.
The body weight of each mouse of each group was measured on 1, 3, 5, and 7 days after injection with the vehicle control or peptide. Total change in body weight was calculated by subtracting the average body weight of a group at the time of injection with vehicle or peptide from the average body weight of the group seven days after injection. Food intake by each group of mice was measured during the course of the week as well. Total food intake was measured seven days after injection with vehicle control or peptide. […] The Ser11 substitution or the des-amino His7 reduces total efficacy.

blood glucose [4] = experiment: Glucose challenge in DIO mice after pegylated peptide injection (Example 8); type: in vivo; conditions: 15 or 70 nmol/kg, glucose injected sixty minutes after peptide
Experimental: as §2
as §1, with “Sixty” for “Fifteen”, “peptides” for “compounds”, “peptide” for “compound”, “control (at time point −60),” for “control,”, “injection (at time point 0),” for “injection,”

T1 sequence (P43220 24-463, species assumed): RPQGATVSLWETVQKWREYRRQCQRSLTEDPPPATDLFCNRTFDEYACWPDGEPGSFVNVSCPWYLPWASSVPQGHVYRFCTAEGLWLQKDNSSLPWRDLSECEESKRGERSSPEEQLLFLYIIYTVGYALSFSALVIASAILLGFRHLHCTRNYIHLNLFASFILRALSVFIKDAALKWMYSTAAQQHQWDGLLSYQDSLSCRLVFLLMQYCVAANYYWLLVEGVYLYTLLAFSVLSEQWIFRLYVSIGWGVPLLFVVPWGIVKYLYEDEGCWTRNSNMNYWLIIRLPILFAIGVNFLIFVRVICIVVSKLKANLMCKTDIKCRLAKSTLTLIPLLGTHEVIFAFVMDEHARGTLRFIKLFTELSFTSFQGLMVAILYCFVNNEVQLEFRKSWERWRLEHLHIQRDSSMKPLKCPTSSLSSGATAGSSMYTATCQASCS

Molecule | blood glucose of prodrug form versus corresponding non-prodrug form (blood glucose [2]) | total food intake [3] | blood glucose concentrations versus vehicle control (blood glucose [4]) | other results
2 (FTSEYSKYLDERRAQDFVQWLMNTGPSSGAPPPS; lactam 7-11) [Peptide 2] |  |  |  | t1/2 ([1]; buffer): HO-Phe-dVal (t1/2 = 50.5 hrs)
HAEGTFTSDVSSYLEGQAAKEFIAWLVKGRGKRNRNNIA (listed as Homo sapiens) [GLP-oxyntomodulin] |  |  |  | potency relative to native GLP-1 (GLP-1 receptor): at least as potent as the native GLP-1 peptide
H^7AEGTFTSDVSSYLEGQAAKEFIAWLVKGXPSSGAPPPS-amide [GLP(7-36)-CEX amide] |  |  |  | potency relative to native GLP-1 (GLP-1 receptor): approximately ten times more potent in vitro than the native GLP-1 sequence
F^7,GLP(8-37): aa 7-37 of GLP-1 with the His at position 7 replaced with Phe (FAEGTFTSDVSSYLEGQAAKEFIAWLVKGRG; Glucagon-like peptide 1(7-37); UniProt P01275 98-128, looked up, variant H7F) |  |  |  | potency of native GLP-1 (GLP-1 receptor; relative to native GLP): 10%
Peptide A: prodrug of Peptide B, d-Phe-dPhe attached via the O-terminus; SEQ ID NO: 645 ({dF-dF-PLA}-[Aib]EGTFTSDVSSYLEEQAAKEFIAWLVKGRPSSGAPPPS-NH2; also: dF-PLA joined by ester bond) | higher than the blood glucose levels of mice injected with the corresponding non-prodrug forms of the peptides |  |  | 
Peptide Z: pegylated prodrug, d-Phe-d-Val ester on Ser at position 11; SEQ ID NO: 654 (H[Aib]EGS([dV-dF])FTSDVSSYLEEQAAKEFIC(PEG 40 kDa)WLVKGRPSSGAPPPS-NH2) |  | decreased | less as compared to the blood glucose levels of mice injected with vehicle control | 
Peptide C: prodrug of Peptide B, d-Phe-d-Val attached via the O-terminus; SEQ ID NO: 647 ({dF-dV-PLA}-[Aib]EGTFTSDVSSYLEEQAAKEFIAWLVKGRPSSGAPPPS-NH2; also: dV-PLA joined by ester bond) | higher than the blood glucose levels of mice injected with the corresponding non-prodrug forms of the peptides |  |  | 
Peptide G: prodrug of Peptide F, d-Phe-dVal ester on Ser at position 2 of Peptide F; SEQ ID NO: 651 ([Desaminohistidyl]S([dV-dF])EGTFTSDVSSYLEEQAAKEFIAWLVKGRPSSGAPPPS-NH2; SMILES CC[C@H](C)[C@H](NC(=O)[C@H](Cc1ccccc1)NC(=O)[C@H](CCC(=O)O)NC(=O)[C@H](CCCCN)NC(=O)[C@H](C)NC(=O)[C@H](C)NC(=O)[C@H](CCC(N)=O)NC(=O)[C@H](CCC(=O)O)NC(=O)[C@H](CCC(=O)O)NC(=O)[C@H](CC(C)C)NC(=O)[C@H](Cc1ccc(O)cc1)NC(=O)[C@H](CO)NC(=O)[C@H](CO)NC(=O)[C@@H](NC(=O)[C@H](CC(=O)O)NC(=O)[C@H](CO)NC(=O)[C@@H](NC(=O)[C@H](Cc1ccccc1)NC(=O)[C@@H](NC(=O)CNC(=O)[C@H](CCC(=O)O)NC(=O)[C@H](COC(=O)[C@H](NC(=O)[C@H](N)Cc1ccccc1)C(C)C)NC(=O)CCc1c[nH]cn1)[C@@H](C)O)[C@@H](C)O)C(C)C)C(=O)N[C@@H](C)C(=O)N[C@@H](Cc1c[nH]c2ccccc12)C(=O)N[C@@H](CC(C)C)C(=O)N[C@H](C(=O)N[C@@H](CCCCN)C(=O)NCC(=O)N[C@@H](CCCNC(=N)N)C(=O)N1CCC[C@H]1C(=O)N[C@@H](CO)C(=O)N[C@@H](CO)C(=O)NCC(=O)N[C@@H](C)C(=O)N1CCC[C@H]1C(=O)N1CCC[C@H]1C(=O)N1CCC[C@H]1C(=O)N[C@@H](CO)C(N)=O)C(C)C) | higher than the blood glucose levels of mice injected with its corresponding non-prodrug form |  |  | 
Peptide F-Peg: Peptide F sequence with Cys at 30 linked to a 40 kDa PEG; SEQ ID NO: 655 ([Desaminohistidyl]SEGTFTSDVSSYLEEQAAKEFIC(PEG 40 kDa)WLVKGRPSSGAPPPS-NH2) |  | decreased | less as compared to the blood glucose levels of mice injected with vehicle control | total efficacy over a week study [3]: comparable
Peptide G-Peg: pegylated prodrug, d-Phe-d-Val ester on Ser at position 8; SEQ ID NO: 656 ([Desaminohistidyl]S([dV-dF])EGTFTSDVSSYLEEQAAKEFIC(PEG 40 kDa)WLVKGRPSSGAPPPS-NH2) |  | decreased | less as compared to the blood glucose levels of mice injected with vehicle control | total efficacy over a week study [3]: comparable
CC[C@H](C)[C@H](NC(=O)[C@H](Cc1ccccc1)NC(=O)[C@H](CCC(=O)O)NC(=O)[C@H](CCCCN)NC(=O)[C@H](C)NC(=O)[C@H](C)NC(=O)[C@H](CCC(N)=O)NC(=O)CNC(=O)[C@H](CCC(=O)O)NC(=O)[C@H](CC(C)C)NC(=O)[C@H](Cc1ccc(O)cc1)NC(=O)[C@H](CO)NC(=O)[C@H](CO)NC(=O)[C@@H](NC(=O)[C@H](CC(=O)O)NC(=O)[C@H](CO)NC(=O)[C@@H](NC(=O)[C@H](Cc1ccccc1)NC(=O)[C@H](COC(=O)CNC(=O)CN)NC(=O)CNC(=O)[C@H](CCC(N)=O)NC(=O)[C@H](C)NC(=O)[C@@H](N)Cc1ccccc1)[C@@H](C)O)C(C)C)C(=O)N[C@@H](C)C(=O)N[C@@H](Cc1c[nH]c2ccccc12)C(=O)N[C@@H](CC(C)C)C(=O)N[C@H](C(=O)N[C@@H](CCCCN)C(=O)NCC(=O)NCC(=O)N1CCC[C@H]1C(=O)N[C@@H](CO)C(=O)N[C@@H](CO)C(=O)NCC(=O)N[C@@H](C)C(=O)N1CCC[C@H]1C(=O)N1CCC[C@H]1C(=O)N1CCC[C@H]1C(=O)N[C@@H](CO)C(N)=O)C(C)C (H-FAQGS([Gly-Gly])FTSDVSSYLEGQAAKEFIAWLVKGGPSSGAPPPS-NH2; N-terminus and C-terminus assumed) |  |  |  | half-life ([1]; buffer, PBS pH 7.2, 37° C.): 2.7 h; prodrug converted to the active entity ([1]; in 5 hours, worked out from the half life ([…])): approximately 70%
Peptide Y: GLP-1-based peptide with Cys at 30 linked to a 40 kDa PEG; SEQ ID NO: 653 (H[Aib]EGTFTSDVSSYLEEQAAKEFIC(PEG 40 kDa)WLVKGRPSSGAPPPS-NH2) |  | decreased | less as compared to the blood glucose levels of mice injected with vehicle control | potency in decreasing appetite and decreasing body weight ([3]; one week): most potent of the four peptides in decreasing appetite and decreasing body weight
Peptide E: prodrug of Peptide D, d-Phe-d-Val ester on Ser at position 11; SEQ ID NO: 649 (H[Aib]EGS([dV-dF])FTSDVSSYLEEQAAKEFIAWLVKGRPSSGAPPPS-NH2; N-terminus assumed; SMILES CC[C@H](C)[C@H](NC(=O)[C@H](Cc1ccccc1)NC(=O)[C@H](CCC(=O)O)NC(=O)[C@H](CCCCN)NC(=O)[C@H](C)NC(=O)[C@H](C)NC(=O)[C@H](CCC(N)=O)NC(=O)[C@H](CCC(=O)O)NC(=O)[C@H](CCC(=O)O)NC(=O)[C@H](CC(C)C)NC(=O)[C@H](Cc1ccc(O)cc1)NC(=O)[C@H](CO)NC(=O)[C@H](CO)NC(=O)[C@@H](NC(=O)[C@H](CC(=O)O)NC(=O)[C@H](CO)NC(=O)[C@@H](NC(=O)[C@H](Cc1ccccc1)NC(=O)[C@H](COC(=O)[C@H](NC(=O)[C@H](N)Cc1ccccc1)C(C)C)NC(=O)CNC(=O)[C@H](CCC(=O)O)NC(=O)C(C)(C)NC(=O)[C@@H](N)Cc1c[nH]cn1)[C@@H](C)O)C(C)C)C(=O)N[C@@H](C)C(=O)N[C@@H](Cc1c[nH]c2ccccc12)C(=O)N[C@@H](CC(C)C)C(=O)N[C@H](C(=O)N[C@@H](CCCCN)C(=O)NCC(=O)N[C@@H](CCCNC(=N)N)C(=O)N1CCC[C@H]1C(=O)N[C@@H](CO)C(=O)N[C@@H](CO)C(=O)NCC(=O)N[C@@H](C)C(=O)N1CCC[C@H]1C(=O)N1CCC[C@H]1C(=O)N1CCC[C@H]1C(=O)N[C@@H](CO)C(N)=O)C(C)C) | higher than the blood glucose levels of mice injected with the corresponding non-prodrug forms of the peptides |  |  | 
